Data on twelve molecules can be found in PMC10413337 (RSC Advances, 2023).

One data set has as its system colon carcinoma Caco2. Kind of data set: MTT cytotoxicity evaluation, Caco2. The settings on record: Homo sapiens, Caco-2, read-out: IC50 (μM ± SD) Caco2. The format is cell-based.
For data set [1], the system named is normal lung fibroblast WI-38. Kind of data set: MTT cytotoxicity evaluation, normal WI-38. The format is cell-based. The settings on record: Homo sapiens, WI-38, read-out: IC50 (μM ± SD) WI-38.
The subject of another data set is hepatic carcinoma HepG-2. Kind of data set: MTT cytotoxicity evaluation, HepG-2. The format is cell-based. The note with it: Homo sapiens, HepG2, read-out: IC50 (μM ± SD) HepG-2.
A further data set concerns breast MCF-7. Kind of data set: MTT cytotoxicity evaluation, MCF-7. The note with it: for IC50: Homo sapiens, MCF7, read-out: IC50 (μM ± SD) MCF-7.
Another data set deals with HepG-2, Caco2, and MCF-7. Kind of data set: MTT cytotoxicity, statements over the three cancer cell lines. The format is cell-based, human. The note with it: 9c versus 3.

Usually IC50 stands for the concentration needed to halve the response being measured.

In the case of `CC(=O)c1nn(-c2ccc(S(N)(=O)=O)cc2)c(=N)s1` [Compound 1, 5-acetyl-3-N-(4-sulfamoylphenyl)-2-imino-1,3,4-thiadiazoline], the IC50 in the data set on colon carcinoma Caco2 stood at 11.1 ± 0.6 µM; in data set [1] it was 91.5 ± 4.7 µM; in the data set with hepatic carcinoma HepG-2 it was 59.6 ± 3.4 µM; with breast MCF-7, 14.9 ± 0.7 µM.

For the molecule `CC(=NNC(N)=S)c1nn(-c2ccc(S(N)(=O)=O)cc2)c(=N)s1` [Compound 3, 2-(1-(5-imino-4-(4-sulfamoylphenyl)-4,5-dihydro-1,3,4-thiadiazol-2-yl)ethylidene)hydrazine-1-carbothioamide], the IC50 with colon carcinoma Caco2 was determined as 14.9 ± 0.7 µM; in data set [1], 44.4 ± 2.3 µM; in the data set with hepatic carcinoma HepG-2, 4.57 ± 0.3 µM; in the data set on breast MCF-7, 6.38 ± 0.3 µM. In the data set on breast MCF-7 (thiosemicarbazone 3 versus acetyl derivative 1, MCF-7), the “improvement of the cytotoxic effect, times” value is recorded as 2.5 times.

For the molecule `CC(=NNc1nc(-c2ccccc2)cs1)c1nn(-c2ccc(S(N)(=O)=O)cc2)c(=N)s1` [Compound 4, 4-(2-Imino-5-(1-(2-(4-phenylthiazol-2-yl)hydrazineylidene)ethyl)-1,3,4-thiadiazol-3(2H)yl)benzenesulfonamide], the half-inhibitory concentration (IC50) in the data set with colon carcinoma Caco2 is 3.19 ± 0.2 µM; in data set [1] it was 21.4 ± 1.1 µM; in the data set with hepatic carcinoma HepG-2, 0.5 ± 0.04 µM; in the data set with breast MCF-7, 3.52 ± 0.2 µM.

Regarding `CC(=O)c1sc(NN=C(C)c2nn(-c3ccc(S(N)(=O)=O)cc3)c(=N)s2)nc1C` [Compound 6, 4-(5-(1-(2-(5-Acetyl-4-methylthiazol-2-yl)hydrazineylidene)ethyl)-2-imino-1,3,4-thiadiazol-3(2H)-yl)benzenesulfonamide], the IC50 came out at 33.8 ± 1.7 µM in the data set on colon carcinoma Caco2, 110 ± 5.7 µM in data set [1], 32.9 ± 1.9 µM with hepatic carcinoma HepG-2 and 21.2 ± 1.2 µM in the data set on breast MCF-7.

In the case of `CCOC(=O)c1sc(NN=C(C)c2nn(-c3ccc(S(N)(=O)=O)cc3)c(=N)s2)nc1C` [Compound 7, Ethyl-2-(2-(1-(5-imino-4-(4-sulfamoylphenyl)-4,5-dihydro-1,3,4-thiadiazol-2-yl)ethylidene)hydrazineyl)-4-methylthiazole-5-carboxylate], the IC50 in the data set on colon carcinoma Caco2 worked out at 7.39 ± 0.4 µM; in data set [1], 42.9 ± 2.2 µM; in the data set with hepatic carcinoma HepG-2, 19.6 ± 1.1 µM; with breast MCF-7, 12.6 ± 0.6 µM.

Take `CC(=NNC1=NC(=O)CS1)c1nn(-c2ccc(S(N)(=O)=O)cc2)c(=N)s1` [Compound 8, 4-(2-Imino-5-(1-(2-(4-oxo-4,5-dihydrothiazol-2-yl)hydrazineylidene)ethyl)-1,3,4-thiadiazol-3(2H)-yl)benzenesulfonamide]: the IC50 amounted to 5.31 ± 0.3 µM in the data set on colon carcinoma Caco2, 22.9 ± 1.2 µM in data set [1], 11.3 ± 0.6 µM with hepatic carcinoma HepG-2 and 27.2 ± 1.2 µM with breast MCF-7.

In the case of `CNC(=S)NN=C(C)c1nn(-c2ccc(S(N)(=O)=O)cc2)c(=N)s1` [Compound 9a, 2-(1-(5-Imino-4-(4-sulfamoylphenyl)-4,5-dihydro-1,3,4-thiadiazol-2-yl)ethylidene)-N-methylhydrazine-1-carbothioamide], the 50% inhibitory concentration (IC50) with colon carcinoma Caco2 was 1.01 ± 0.1 µM; in data set [1] it was 18.4 ± 1.7 µM; in the data set with hepatic carcinoma HepG-2, 0.53 ± 0.01 µM; with breast MCF-7, 1.12 ± 0.1 µM.

With `C=CCNC(=S)NN=C(C)c1nn(-c2ccc(S(N)(=O)=O)cc2)c(=N)s1` [Compound 9b, N-Allyl-2-(1-(5-imino-4-(4-sulfamoylphenyl)-4,5-di-hydro-1,3,4-thiadiazol-2-yl)ethylidene)hydrazine-1-carbothioamide], the IC50 came to 74.8 ± 3.7 µM with colon carcinoma Caco2, 92.9 ± 4.8 µM in data set [1], 149 ± 8.4 µM in the data set with hepatic carcinoma HepG-2 and 73 ± 3.3 µM in the data set with breast MCF-7.

In the case of `CC(=NNC(=S)Nc1ccccc1)c1nn(-c2ccc(S(N)(=O)=O)cc2)c(=N)s1` [Compound 9c, 2-(1-(5-imino-4-(4-sulfamoylphenyl)-4,5-di-hydro-1,3,4-thiadiazol-2-yl)ethylidene)-N-phenylhydrazine-1-carbothioamide], the IC50 in the data set with colon carcinoma Caco2 was determined as 34.7 ± 1.7 µM; in data set [1], 28.5 ± 1.5 µM; in the data set with hepatic carcinoma HepG-2 it was 37.1 ± 2.1 µM; in the data set on breast MCF-7 it was 21.1 ± 0.9 µM. Besides, the “drop in cytotoxicity, times” value in the data set with HepG-2, Caco2, and MCF-7 is 10 times.

With `CC(=NNC(=S)Nc1ccc(Cl)cc1)c1nn(-c2ccc(S(N)(=O)=O)cc2)c(=N)s1` [Compound 9d, N-(4-Chlorophenyl)-2-(1-(5-imino-4-(4-sulfamoylphenyl)-4,5-dihydro-1,3,4-thiadiazol-2-yl)-ethylidene)hydrazine-1-carbothioamide], the 50% inhibitory concentration (IC50) turned out to be 98.7 ± 4.9 µM with colon carcinoma Caco2, 60.7 ± 3.1 µM in data set [1], 153 ± 8.6 µM with hepatic carcinoma HepG-2 and 42.6 ± 1.8 µM in the data set with breast MCF-7.

As for `C=CCn1c(-c2ccccc2)csc1=NN=C(C)c1nn(-c2ccc(S(N)(=O)=O)cc2)c(=N)s1` [Compound 12b, 4-(5-(1-((3-Allyl-4-phenylthiazol-2(3H)-ylidene)hydrazono)ethyl)-2-imino-1,3,4-thiadiazol-3(2H)-yl)benzenesulfonamide], the IC50 is 25.5 ± 1.3 µM in the data set on colon carcinoma Caco2, 63.5 ± 3.9 µM in data set [1], 17.5 ± 1.5 µM in the data set with hepatic carcinoma HepG-2 and 15.1 ± 0.7 µM in the data set with breast MCF-7.

Turning to `CC(=NN=c1scc(-c2ccccc2)n1-c1ccc(Cl)cc1)c1nn(-c2ccc(S(N)(=O)=O)cc2)c(=N)s1` [Compound 12d, 4-(5-(1-((3-(4-Chlorophenyl)-4-phenylthiazol-2(3H)-ylidene)hydrazono)ethyl)-2-imino-1,3,4-thiadiazol-3(2H)-yl)benzenesulfonamide], the half-inhibitory concentration (IC50) in the data set on colon carcinoma Caco2 was found to be 1.06 ± 0.1 µM; in data set [1], 46.6 ± 2.4 µM; in the data set on hepatic carcinoma HepG-2, 4.26 ± 0.2 µM; in the data set on breast MCF-7, 3.79 ± 0.2 µM.
